Like-named read-outs stand apart in the source and are kept apart here.
Experiments:
[1] = target: panel of more than 300 wild-type and mutant kinases (313 kinase panel) (Homo sapiens, UniProt P07947, T348I); test: Kinase profiling in a biochemical assay panel (mobility shift assays and ELISA), %-inhibition at 1 μM; selectivity entropy; details: kinase YES(T348I); compound at 1 μM
[2] = target: panel of more than 300 wild-type and mutant kinases (313 kinase panel) (Homo sapiens, UniProt P00519); test: as above; details: kinase ABL; 1 μM compound
[3] = target: panel of more than 300 wild-type and mutant kinases (313 kinase panel) (Homo sapiens, UniProt P15056); test: as above; details: kinase BRAF; 1 μM compound
[4] = target: panel of more than 300 wild-type and mutant kinases (313 kinase panel) (Homo sapiens, UniProt P11362, V561M); test: as above; details: kinase FGFR1(V561M); compound at 1 μM
[5] = target: panel of more than 300 wild-type and mutant kinases (313 kinase panel) (Homo sapiens, UniProt P15056, V600E); test: as above; details: kinase BRAF(V600E); 1 μM compound
[6] = target: panel of more than 300 wild-type and mutant kinases (313 kinase panel) (Homo sapiens, UniProt P00519, E255K); test: as above; details: kinase ABL(E255K); 1 μM compound
[7] = target: panel of more than 300 wild-type and mutant kinases (313 kinase panel) (Homo sapiens, UniProt Q9UM73, R1275Q); test: as above; details: kinase ALK(R1275Q); 1 μM compound
[8] = target: panel of more than 300 wild-type and mutant kinases (313 kinase panel) (Homo sapiens, UniProt P09619); test: as above; details: kinase PDGFRβ; 1 μM
[9] = target: panel of more than 300 wild-type and mutant kinases (313 kinase panel) (Homo sapiens, UniProt P35968); test: as above; details: kinase KDR; compound at 1 μM
[10] = test system: forty-four human cancer cell lines; test: Cell proliferation assay (ATPlite, 72 hours) in the 44 cell line Oncolines panel; format: cell-based; details: Homo sapiens
[11] = target: panel of more than 300 wild-type and mutant kinases (313 kinase panel) (Homo sapiens, UniProt P00533, T790M); test: Kinase profiling in a biochemical assay panel (mobility shift assays and ELISA), %-inhibition at 1 μM; selectivity entropy; details: kinase EGFR(T790M); compound at 1 μM
[12] = target: panel of more than 300 wild-type and mutant kinases (313 kinase panel) (Homo sapiens, UniProt P00533, L858R); test: as above; details: kinase EGFR(L858R); compound at 1 μM
[13] = target: panel of more than 300 wild-type and mutant kinases (313 kinase panel) (Homo sapiens, UniProt P00533, L861Q); test: as above; details: kinase EGFR(L861Q); compound at 1 μM
[14] = target: panel of more than 300 wild-type and mutant kinases (313 kinase panel) (Homo sapiens, UniProt P00533); test: as above; details: kinase EGFR; compound at 1 μM
[15] = 4-4 cell, read-out: cell panel IC50, J82
[16] = 4-4 cell, read-out: cell panel IC50, PA-1
[17] = 4-4 cell, read-out: cell panel IC50, SJCRH30
[18] = 4-4 cell, read-out: cell panel IC50, SR
[19] = 769-P, read-out: cell panel IC50, 769-P
[20] = 786-0, read-out: cell panel IC50, 786-0
[21] = A 172, read-out: cell panel IC50, A-172
[22] = A204, read-out: cell panel IC50, A-204
[23] = A498, read-out: cell panel IC50, A-498
[24] = A549, read-out: cell panel IC50, A-549
[25] = A-375, read-out: cell panel IC50, A375
[26] = A-427, read-out: cell panel IC50, A-427
[27] = ACHN, read-out: cell panel IC50, ACHN
[28] = AN3-CA, read-out: cell panel IC50, AN3 CA
[29] = AU565, read-out: cell panel IC50, AU-565
[30] = BT-20, read-out: cell panel IC50, BT-20
[31] = BT-549, read-out: cell panel IC50, BT-549
[32] = BXPC-3, read-out: cell panel IC50, BxPC-3
[33] = C-33-A, read-out: cell panel IC50, C-33 A
[34] = CAL-27, read-out: cell panel IC50, CAL 27
[35] = CCRF-CEM, read-out: cell panel IC50, CCRF-CEM
[36] = DLD-1, read-out: cell panel IC50, DLD-1
[37] = FaDu, read-out: cell panel IC50, FaDu
[38] = HCT-15, read-out: cell panel IC50, HCT-15
[39] = HCT-116, read-out: cell panel IC50, HCT-116
[40] = Hs-578T, read-out: cell panel IC50, Hs 578T
[41] = Jurkat E6.1, read-out: cell panel IC50, Jurkat E6.1
[42] = K562, read-out: cell panel IC50, K-562
[43] = LS174T, read-out: cell panel IC50, LS 174T
[44] = LoVo, read-out: cell panel IC50, LoVo
[45] = MG-63, read-out: cell panel IC50, MG-63
[46] = MOLT-4, read-out: cell panel IC50, MOLT-4
[47] = MeWo, read-out: cell panel IC50, MeWo
[48] = NCI-H82, read-out: cell panel IC50, NCI-H82
[49] = NCI-H460, read-out: cell panel IC50, NCI-H460
[50] = OVCAR-3, read-out: cell panel IC50, OVCAR-3
[51] = RPMI-7951, read-out: cell panel IC50, RPMI-7951
[52] = SHP77, read-out: cell panel IC50, SHP-77
[53] = SK-N-AS, read-out: cell panel IC50, SK-N-AS
[54] = SW48, read-out: cell panel IC50, SW48
[55] = SW480, read-out: cell panel IC50, SW480
[56] = SW-620, read-out: cell panel IC50, SW620
[57] = U2OS, read-out: cell panel IC50, U-2 OS
[58] = U-87 MG, 72 h, read-out: IC50 in cell proliferation assay (table S5 cellpanel data)

For `O=S(=O)(c1cccc2cnccc12)N1CCCNCC1` [fasudil], the “%-inhibition of YES(T348I)” value [1] was 6%, the “%-inhibition, ABL” value [2] was -8% and the “%-inhibition, BRAF” value [3] was -3.28%. The “%-inhibition of FGFR1(V561M)” value [4] was 2.35%, the “%-inhibition, BRAF(V600E)” value [5] was 3.36% and the “%-inhibition, ABL(E255K)” value [6] was -3%. For the same compound, the “%-inhibition, ALK(R1275Q)” value [7] was -1.83%, the “%-inhibition of PDGFRβ” value [8] was 12% and the “%-inhibition of KDR” value [9] was 1.78%. The IC50 [10, 15] was greater than 31.6 µM, the IC50 [10, 16] was greater than 31.6 µM and the IC50 [10, 17] was greater than 31.6 µM. For the same compound, the IC50 [10, 18] was 14.6 µM, the IC50 [10, 19] was greater than 31.6 µM and the IC50 [10, 20] was greater than 31.6 µM. The IC50 [10, 21] was greater than 31.6 µM, the IC50 [10, 22] was greater than 31.6 µM and the IC50 [10, 23] was greater than 31.6 µM. The IC50 [10, 24] was greater than 31.6 µM, the IC50 [10, 25] was 19.7 µM and the IC50 [10, 26] was greater than 31.6 µM. For the same compound, the IC50 [10, 27] was greater than 31.6 µM, the IC50 [10, 28] was 29.8 µM and the IC50 [10, 29] was greater than 31.6 µM. The IC50 [10, 30] was greater than 31.6 µM, the IC50 [10, 31] was greater than 31.6 µM and the IC50 [10, 32] was greater than 31.6 µM. The IC50 [10, 33] was greater than 31.6 µM, the IC50 [10, 34] was greater than 31.6 µM and the IC50 [10, 35] was greater than 31.6 µM. The IC50 [10, 36] was greater than 31.6 µM, the IC50 [10, 37] was greater than 31.6 µM and the IC50 [10, 38] was greater than 31.6 µM. The IC50 [10, 39] was greater than 31.6 µM, the IC50 [10, 40] was greater than 31.6 µM and the IC50 [10, 41] was greater than 31.6 µM. For the same compound, the IC50 [10, 42] was greater than 31.6 µM, the IC50 [10, 43] was greater than 31.6 µM and the IC50 [10, 44] was greater than 31.6 µM. For the same compound, the IC50 [10, 45] was greater than 31.6 µM, the IC50 [10, 46] was greater than 31.6 µM and the IC50 [10, 47] was greater than 31.6 µM. It also gave an IC50 [10, 48] greater than 31.6 µM, an IC50 [10, 49] greater than 31.6 µM and an IC50 [10, 50] greater than 31.6 µM. It also gave an IC50 [10, 51] greater than 31.6 µM, an IC50 [10, 52] greater than 31.6 µM and an IC50 [10, 53] greater than 31.6 µM. It also gave an IC50 [10, 54] greater than 31.6 µM, an IC50 [10, 55] greater than 31.6 µM and an IC50 [10, 56] greater than 31.6 µM. It also gave an IC50 [10, 57] greater than 31.6 µM and an IC50 [10, 58] greater than 31.6 µM.
In the case of `Cc1cn(-c2cc(NC(=O)c3ccc(C)c(Nc4nccc(-c5cccnc5)n4)c3)cc(C(F)(F)F)c2)cn1` [nilotinib], the “%-inhibition of EGFR(T790M)” value [11] is reported as 7.54%, the “%-inhibition of EGFR(L858R)” value [12] is reported as 30% and the “%-inhibition of EGFR(L861Q)” value [13] is reported as 11%. For the same compound, the “%-inhibition of EGFR” value [14] was 17%, the “%-inhibition of KDR” value [9] was 22% and the IC50 [10, 15] was 6.33 µM. For the same compound, the IC50 [10, 16] was 13.8 µM, the IC50 [10, 17] was greater than 31.6 µM and the IC50 [10, 18] was 4.31 µM. For the same compound, the IC50 [10, 19] was greater than 31.6 µM, the IC50 [10, 20] was 1.11 µM and the IC50 [10, 21] was 9.78 µM. For the same compound, the IC50 [10, 22] was 0.584 µM, the IC50 [10, 23] was 5.04 µM and the IC50 [10, 24] was 7.29 µM. The IC50 [10, 25] was 9.58 µM, the IC50 [10, 26] was 6.73 µM and the IC50 [10, 27] was 12.3 µM. It also gave an IC50 [10, 28] of 26.1 µM, an IC50 [10, 29] of 4.63 µM and an IC50 [10, 30] greater than 31.6 µM. For the same compound, the IC50 [10, 31] was 3.33 µM, the IC50 [10, 32] was 10.1 µM and the IC50 [10, 33] was greater than 31.6 µM. For the same compound, the IC50 [10, 34] was 9.84 µM, the IC50 [10, 35] was 6.74 µM and the IC50 [10, 36] was 7.3 µM. The IC50 [10, 37] was greater than 31.6 µM, the IC50 [10, 38] was 6.17 µM and the IC50 [10, 39] was 5.75 µM. For the same compound, the IC50 [10, 40] was 7.43 µM, the IC50 [10, 41] was 11.8 µM and the IC50 [10, 42] was 0.026 µM. The IC50 [10, 43] was 6.11 µM, the IC50 [10, 44] was 7.46 µM and the IC50 [10, 45] was 8.78 µM. The IC50 [10, 46] was 4.36 µM, the IC50 [10, 47] was greater than 31.6 µM and the IC50 [10, 48] was 31.2 µM. It also gave an IC50 [10, 49] of 6.49 µM, an IC50 [10, 50] greater than 31.6 µM and an IC50 [10, 51] of 7.78 µM. The IC50 [10, 52] was greater than 31.6 µM, the IC50 [10, 53] was 24 µM and the IC50 [10, 54] was greater than 31.6 µM. For the same compound, the IC50 [10, 55] was 18 µM, the IC50 [10, 56] was 5.3 µM and the IC50 [10, 57] was 5.38 µM. For the same compound, the IC50 [10, 58] was greater than 31.6 µM.

Source: PMC3961306, “Comparison of the Cancer Gene Targeting and Biochemical Selectivities of All Targeted Kinase Inhibitors Approved for Clinical Use” (PLoS ONE, 2014)
